Laboratory results reported in ChEMBL document CHEMBL1795309, “Thiophenyl oxime-derived phosphonates as nano-molar class C beta-lactamase inhibitors reducing MIC of imipenem against Pseudomonas aeruginosa and Acinetobacter baumannii” (Bioorg Med Chem Lett, 2011).
Values belong to the compound of their own block, whether it stands above or below them. The source made the active and inactive calls. The calls are words filed in the database; no cut-off is given here.

Legend:
Beta-lactamase [1] = molecular target: Beta-lactamase (Pseudomonas aeruginosa (strain ATCC 15692 / PAO1 / 1C / PRS 101 / LMG12228), UniProt P24735); test: Inhibition of Pseudomonas aeruginosa beta lactamase AmpC
Chain of Beta-lactamase (Pseudomonas aeruginosa (strain ATCC 15692 / PAO1 / 1C / PRS 101 / LMG12228), UniProt P24735) (P24735 whole entry): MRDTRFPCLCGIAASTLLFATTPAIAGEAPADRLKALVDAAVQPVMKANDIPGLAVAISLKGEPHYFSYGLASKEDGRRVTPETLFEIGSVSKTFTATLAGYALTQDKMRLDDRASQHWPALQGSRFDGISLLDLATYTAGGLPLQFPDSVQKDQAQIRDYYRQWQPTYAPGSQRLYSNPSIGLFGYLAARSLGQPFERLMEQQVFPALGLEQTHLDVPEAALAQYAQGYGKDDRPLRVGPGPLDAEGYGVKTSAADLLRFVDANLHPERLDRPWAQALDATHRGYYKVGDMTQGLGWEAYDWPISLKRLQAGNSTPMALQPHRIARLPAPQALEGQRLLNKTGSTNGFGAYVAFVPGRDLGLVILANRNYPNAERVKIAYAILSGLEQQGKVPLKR

Beta-lactamase [2] = molecular target: Beta-lactamase (Acinetobacter baumannii, UniProt Q8RLA6); test: Inhibition of Acinetobacter baumannii beta lactamase OXA-40
Chain of Beta-lactamase (Acinetobacter baumannii, UniProt Q8RLA6) (Q8RLA6 whole entry): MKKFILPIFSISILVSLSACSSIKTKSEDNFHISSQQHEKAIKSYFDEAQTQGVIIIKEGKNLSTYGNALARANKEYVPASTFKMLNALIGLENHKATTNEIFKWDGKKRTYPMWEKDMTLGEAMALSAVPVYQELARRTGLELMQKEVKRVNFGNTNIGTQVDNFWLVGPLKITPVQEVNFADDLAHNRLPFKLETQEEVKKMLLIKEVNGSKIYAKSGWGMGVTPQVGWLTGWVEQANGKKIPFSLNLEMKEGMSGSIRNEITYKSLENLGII

[3] = Inhibition of Pseudomonas aeruginosa beta lactamase TEM-1
Beta-lactamase SHV-5 = Beta-lactamase SHV-5 (Klebsiella pneumoniae, UniProt P0A3M1); test: Inhibition of Klebsiella pneumoniae beta lactamase SHV-5
Chain of Beta-lactamase SHV-5 (P0A3M1 whole entry): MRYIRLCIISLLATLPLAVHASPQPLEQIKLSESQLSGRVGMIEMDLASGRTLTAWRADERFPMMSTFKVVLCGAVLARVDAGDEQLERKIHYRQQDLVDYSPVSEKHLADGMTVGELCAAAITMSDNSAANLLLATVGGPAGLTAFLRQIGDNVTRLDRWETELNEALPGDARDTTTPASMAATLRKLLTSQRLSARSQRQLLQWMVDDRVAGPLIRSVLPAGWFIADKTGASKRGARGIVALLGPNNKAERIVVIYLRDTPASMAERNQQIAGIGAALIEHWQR

Beta-lactamase [4] = molecular target: Beta-lactamase (Enterobacter cloacae, UniProt P05364); test: Inhibition of Enterobacter cloacae beta lactamase P99
Chain of Beta-lactamase (Enterobacter cloacae, UniProt P05364) (P05364 whole entry): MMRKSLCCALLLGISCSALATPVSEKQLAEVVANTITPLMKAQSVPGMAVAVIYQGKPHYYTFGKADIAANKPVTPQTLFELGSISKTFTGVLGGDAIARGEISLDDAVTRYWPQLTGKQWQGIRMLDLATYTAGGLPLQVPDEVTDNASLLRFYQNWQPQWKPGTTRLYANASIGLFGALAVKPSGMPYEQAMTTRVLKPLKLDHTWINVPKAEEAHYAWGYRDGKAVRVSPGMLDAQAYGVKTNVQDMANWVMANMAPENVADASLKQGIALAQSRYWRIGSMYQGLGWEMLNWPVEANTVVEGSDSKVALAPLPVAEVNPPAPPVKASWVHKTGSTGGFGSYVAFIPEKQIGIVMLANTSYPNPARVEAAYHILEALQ

Mus musculus = test: Dose normalized AUC in mouse at 2.5 mg/kg, iv; assay type: ADME, organism-based; design: dose 2.5 mg/kg, route intravenous; settings: in vivo
Pseudomonas aeruginosa [5] = test: Antimicrobial activity against imipenem-resistant Pseudomonas aeruginosa expressing beta lactamase AmpC assessed as reduction in imipenim MIC up to 100 uM; assay type: functional, organism-based
Pseudomonas aeruginosa [6] = test: Antimicrobial activity against imipenem-resistant Pseudomonas aeruginosa expressing beta lactamase AmpC up to 100 uM; assay type: functional, organism-based
Pseudomonas aeruginosa [7] = test: Antimicrobial activity against imipenem-resistant Pseudomonas aeruginosa expressing beta lactamase AmpC assessed as reduction in imipenim MIC; assay type: functional, organism-based
Acinetobacter baumannii [8] = test: Antimicrobial activity against imipenem-resistant Acinetobacter baumannii CL6188 assessed as reduction in imipenim MIC; assay type: functional, organism-based
Acinetobacter baumannii [9] = test: Antimicrobial activity against imipenem-resistant Acinetobacter baumannii CL6188 at 100 uM; assay type: functional, organism-based
[10] = Half life in mouse at 2.5 mg/kg, iv; assay type: ADME, organism-based; design: dose 2.5 mg/kg, route intravenous; settings: in vivo
[11] = Clearance in mouse at 2.5 mg/kg, iv; assay type: ADME, organism-based; design: dose 2.5 mg/kg, route intravenous; settings: in vivo
[12] = Volume of distribution in mouse at 2.5 mg/kg, iv; assay type: ADME, organism-based; design: dose 2.5 mg/kg, route intravenous; settings: in vivo

IC50 (Beta-lactamase [1]): 3.2 µM
IC50 (Beta-lactamase [2]): > 50 µM
IC50 [3]: > 50 µM
IC50 (Beta-lactamase SHV-5): > 50 µM
IC50 (Beta-lactamase [4]): 3 µM
SMILES: CO/N=C(/C(=O)NCP(=O)(O)O)c1cccs1

IC50 (Beta-lactamase [1]): 6.5 µM
IC50 (Beta-lactamase [2]): > 50 µM
IC50 [3]: > 50 µM
IC50 (Beta-lactamase SHV-5): > 50 µM
IC50 (Beta-lactamase [4]): 21 µM
SMILES: CO/N=C(\C(=O)NCP(=O)(O)O)c1cccs1

SMILES: CO/N=C(\C(=O)NCP(=O)(O)Oc1ccc(C#N)c(F)c1)c1cnc(N)s1
IC50 (Beta-lactamase [1]): 1.5 µM
IC50 (Beta-lactamase [2]): > 50 µM
IC50 [3]: > 50 µM
IC50 (Beta-lactamase SHV-5): > 50 µM
IC50 (Beta-lactamase [4]): 0.8 µM

SMILES: CO/N=C(\C(=O)NCP(=O)(O)Oc1ccc(C#N)c(F)c1)c1cccs1
IC50 (Beta-lactamase [1]): 0.046 µM
IC50 (Beta-lactamase [2]): 26 µM
IC50 [3]: > 50 µM
IC50 (Beta-lactamase SHV-5): > 12.5 µM
IC50 (Beta-lactamase [4]): 0.1 µM

SMILES: N#Cc1ccc(OP(=O)(O)CNC(=O)C(=NO)c2cccs2)cc1F
IC50 (Beta-lactamase [1]): 0.2 µM
IC50 (Beta-lactamase [2]): 21 µM
IC50 [3]: 23 µM
IC50 (Beta-lactamase SHV-5): 27 µM
IC50 (Beta-lactamase [4]): 0.1 µM

SMILES: N#Cc1ccc(OP(=O)([O-])CNC(=O)/C(=N\OCCC[n+]2ccccc2)c2cccs2)cc1F (stereo in doubt; 6b)
IC50 (Beta-lactamase [1]): 0.087 µM
IC50 (Beta-lactamase [2]): > 50 µM
IC50 [3]: > 50 µM
IC50 (Beta-lactamase SHV-5): > 50 µM
IC50 (Beta-lactamase [4]): 0.17 µM

SMILES: N#Cc1ccc(OP(=O)([O-])CNC(=O)/C(=N\OCCC[n+]2ccccc2)c2cccs2)cc1F (stereo in doubt; 6a)
IC50 (Beta-lactamase [1]): 0.021 µM
IC50 (Beta-lactamase [2]): 27 µM
IC50 [3]: 17 µM
IC50 (Beta-lactamase SHV-5): > 50 µM
IC50 (Beta-lactamase [4]): 0.087 µM

SMILES: CO/N=C(\C(=O)NCP(=O)(O)Oc1ccc(C#N)c(F)c1)c1cnc(NC(=O)C(Cl)(Cl)Cl)s1 (stereo in doubt; 2b)
IC50 (Beta-lactamase [1]): 3 µM
IC50 (Beta-lactamase [2]): > 12.5 µM
IC50 (Beta-lactamase SHV-5): 15 µM
IC50 (Beta-lactamase [4]): 0.71 µM

SMILES: CO/N=C(\C(=O)NCP(=O)(O)Oc1ccc(C#N)c(F)c1)c1cnc(NC(=O)C(Cl)(Cl)Cl)s1 (stereo in doubt; 2a)
IC50 (Beta-lactamase [1]): 3 µM
IC50 (Beta-lactamase [2]): > 12.5 µM
IC50 [3]: > 50 µM
IC50 (Beta-lactamase SHV-5): 25 µM
IC50 (Beta-lactamase [4]): 0.34 µM

SMILES: CO/N=C(/C(=O)NCP(=O)(O)Oc1ccc(C#N)c(F)c1)c1cccs1
IC50 (Beta-lactamase [1]): 0.0075 µM
AUC/dose (Mus musculus): 0.98 µM/h/kg/mg
IC50 (Beta-lactamase [2]): 17 µM
Activity (Pseudomonas aeruginosa [5]): Active
IC50 [3]: 28 µM
Activity (Pseudomonas aeruginosa [6]): inactive
IC50 (Beta-lactamase SHV-5): 22 µM
IC50 (Beta-lactamase [4]): 0.032 µM
Activity (Pseudomonas aeruginosa [7]): Dose-dependent effect
Activity (Acinetobacter baumannii [8]): Active
Activity (Acinetobacter baumannii [9]): inactive
half-life [10]: 32.4 min
clearance [11]: 43 mL/min/kg
Vd [12]: 1 L/kg

SMILES: CON=C(C(=O)NCP(=O)(O)Oc1ccc(C#N)c(F)c1)c1cccs1
IC50 (Beta-lactamase [1]): 0.0096 µM
IC50 (Beta-lactamase [2]): > 50 µM
IC50 [3]: > 50 µM
IC50 (Beta-lactamase SHV-5): > 50 µM
IC50 (Beta-lactamase [4]): 0.039 µM

SMILES: CO/N=C(/C(=O)NCP(=O)(O)Oc1ccc(C#N)c(F)c1)c1ccc(Cl)s1
IC50 (Beta-lactamase [1]): 0.005 µM
IC50 (Beta-lactamase [2]): 31 µM
Activity (Pseudomonas aeruginosa [5]): Active
IC50 [3]: 16 µM
Activity (Pseudomonas aeruginosa [6]): inactive
IC50 (Beta-lactamase [4]): 0.019 µM
Activity (Pseudomonas aeruginosa [7]): Dose-dependent effect
Activity (Acinetobacter baumannii [8]): inactive
Activity (Acinetobacter baumannii [9]): inactive
